Measured values reported in patent US6831039B1, “3-(heterocyclyl)-substituted benzolpyrazols” (BASF Aktiengesellschaft, priority 1998, dated 2004).

Tests used:
Test in all cases: Greenhouse post-emergence herbicidal test
lady's-thumb = format: in vivo, Polygonum persicaria; conditions: 0.25 or 0.125 kg/ha
Excerpt: (§1) The seeds of the test plants were sown separately for each species. For the post-emergence treatment, the test plants were first grown to a height of 3 to 15 cm, depending on the plant habit, and only then treated with the active compounds which had been suspended or emulsified in water. The test plants were, for this purpose, either sown directly and grown in the same containers, or they were first grown separately as seedlings and transplanted into the test containers a few days prior to treatment. The application rate for the post-emergence treatment was 0.5, 0.25, 0.125 or 0.0625 kg of a.s. (active substance)/ha. Depending on the species, the plants were kept at 10-25° C. or 20-35° C. The test period extended over 2 to 4 weeks. During this time, the plants were tended, and their response to the individual treatments was evaluated. The evaluation was carried out using a scale from 0 to 100. 100 means no emergence of the plants, or complete destruction of at least the aerial parts and 0 means no damage, or normal course of growth. The plants used in the greenhouse experiments were of the following species: [table]

pigweed = format: in vivo, Amaranthus retroflexus; conditions: 0.25 or 0.125 kg/ha
Excerpt: as §1

green foxtail = format: in vivo, Setaria viridis
Excerpt: as §1

white mustard = format: in vivo, Sinapis alba; conditions: 0.25 or 0.125 kg/ha
Excerpt: as §1

wild oat = format: in vivo, Avena fatua; conditions: 0.25 or 0.125 kg/ha
Excerpt: as §1

black nightshade = format: in vivo, Solanum nigrum; conditions: 0.5 or 0.25 kg/ha
Excerpt: as §1

barnyard grass = format: in vivo, Echinochloa crus galli; conditions: 0.5 or 0.25 kg/ha
Excerpt: as §1

lamb's-quarters = format: in vivo, Chenopodium album; conditions: 0.5 or 0.25 kg/ha
Excerpt: as §1

Cc1c(C(=O)c2cnn(C(C)C)c2O)ccc(S(C)(=O)=O)c1C1=NOCC1 [Compound 2.9]
very good: post-emergence action on grasses and weeds (lady's-thumb) | post-emergence action on grasses and weeds (pigweed) | post-emergence action on grasses and weeds (green foxtail; 0.25 or 0.125 kg/ha) | post-emergence action on grasses and weeds (white mustard) | post-emergence action on grasses and weeds (wild oat)

Cc1nn(C(C)(C)C)c(O)c1C(=O)c1ccc(S(C)(=O)=O)c(C2=NOCC2)c1C [Compound 2.8]
very good: post-emergence control of harmful plants (black nightshade) | post-emergence control of harmful plants (barnyard grass) | post-emergence control of harmful plants (lamb's-quarters) | post-emergence control of harmful plants (green foxtail; 0.5 or 0.25 kg/ha)
